{
  "source": "paper PMC10359466",
  "about": "“Identification of a small-molecule inhibitor that selectively blocks DNA-binding by Trypanosoma brucei replication protein A1” (Nature Communications, 2023)",
  "key": {"TbRPA1 DBD-AB": {"target": "TbRPA1 DBD-AB (Trypanosoma brucei brucei, UniProt Q384B5)", "sequence (Q384B5 entry or part of it)": "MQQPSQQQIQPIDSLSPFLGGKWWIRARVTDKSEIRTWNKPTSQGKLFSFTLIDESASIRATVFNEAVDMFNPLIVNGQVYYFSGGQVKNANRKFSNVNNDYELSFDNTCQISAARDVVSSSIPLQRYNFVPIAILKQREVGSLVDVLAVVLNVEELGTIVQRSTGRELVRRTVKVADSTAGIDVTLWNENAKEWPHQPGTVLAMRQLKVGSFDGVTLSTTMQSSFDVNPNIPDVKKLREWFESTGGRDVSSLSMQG", "experiment": "MST inhibition of ssDNA-binding activity, TbRPA1 DBD-AB", "settings": "4-PL", "text": "(§1) Samples were then loaded into MST capillaries.\n(§2) We used one site binding to obtain a dissociation constant (Kd) and standard 4-parameter logistic curve (Sigmoidal curve) analysis to obtain the IC50 value of JC-229. We used GraphPad Prism software."}, "TbRPA complex": {"target": "TbRPA complex (Trypanosoma brucei brucei, UniProt Q384B5)", "sequence (Q38DK0 entry or part of it)": "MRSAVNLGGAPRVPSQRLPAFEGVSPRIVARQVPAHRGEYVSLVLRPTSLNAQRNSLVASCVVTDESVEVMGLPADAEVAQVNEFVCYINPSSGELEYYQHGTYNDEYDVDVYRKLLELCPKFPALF", "sequence (Q57ZN9 entry or part of it, further chain)": "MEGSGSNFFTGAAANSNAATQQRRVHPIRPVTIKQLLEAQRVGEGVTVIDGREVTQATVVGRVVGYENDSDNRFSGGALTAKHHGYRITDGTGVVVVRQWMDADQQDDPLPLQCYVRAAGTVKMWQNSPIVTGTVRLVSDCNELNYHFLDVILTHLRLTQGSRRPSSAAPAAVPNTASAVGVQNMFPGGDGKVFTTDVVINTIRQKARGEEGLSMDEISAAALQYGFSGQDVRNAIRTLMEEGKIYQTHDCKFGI", "sequence (Q384B5 entry or part of it)": "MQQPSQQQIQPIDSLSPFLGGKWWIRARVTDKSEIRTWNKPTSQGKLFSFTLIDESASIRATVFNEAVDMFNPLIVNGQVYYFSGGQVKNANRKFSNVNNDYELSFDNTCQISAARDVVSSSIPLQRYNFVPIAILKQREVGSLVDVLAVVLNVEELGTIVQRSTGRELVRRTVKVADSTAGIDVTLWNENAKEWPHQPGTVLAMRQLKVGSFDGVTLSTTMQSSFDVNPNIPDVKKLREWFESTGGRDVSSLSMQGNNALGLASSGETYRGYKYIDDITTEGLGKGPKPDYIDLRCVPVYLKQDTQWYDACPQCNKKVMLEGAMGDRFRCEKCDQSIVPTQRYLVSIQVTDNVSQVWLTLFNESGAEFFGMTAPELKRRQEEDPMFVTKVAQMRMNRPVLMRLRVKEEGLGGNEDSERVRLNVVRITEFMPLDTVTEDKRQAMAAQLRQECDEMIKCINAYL", "experiment": "MST inhibition of ssDNA-binding activity, TbRPA complex", "design": "species or system T. brucei", "text": "as §1, §2"}, "TcRPA1 DBD-AB T105S": {"target": "T1, TcRPA1 DBD-AB T105S (Trypanosoma cruzi, UniProt Q4DXC9, T105S)", "T1 sequence (Q4DXC9 1-247 T105S)": "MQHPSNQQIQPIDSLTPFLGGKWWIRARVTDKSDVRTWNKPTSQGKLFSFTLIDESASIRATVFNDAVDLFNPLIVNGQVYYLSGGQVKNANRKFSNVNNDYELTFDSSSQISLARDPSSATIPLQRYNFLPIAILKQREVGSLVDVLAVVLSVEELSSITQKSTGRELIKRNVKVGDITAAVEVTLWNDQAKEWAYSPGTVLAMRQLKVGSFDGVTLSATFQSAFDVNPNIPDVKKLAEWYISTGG", "experiment": "MST inhibition of ssDNA-binding activity, TcRPA1 DBD-AB T105S mutant", "design": "species or system T. cruzi", "text": "as §1, §2"}, "[1]": {"target": "T2, HsDBD-F and ATRIP interaction (Homo sapiens, UniProt P27694)", "T2 construct": "We purified 6xHis-HsDBD-F (amino acids 1–181), synthesized ATRIP peptide; made in house; host or cells: E. coli BL21 (protein); solid-phase synthesis (peptide)", "T2 sequence (P27694 1-181)": "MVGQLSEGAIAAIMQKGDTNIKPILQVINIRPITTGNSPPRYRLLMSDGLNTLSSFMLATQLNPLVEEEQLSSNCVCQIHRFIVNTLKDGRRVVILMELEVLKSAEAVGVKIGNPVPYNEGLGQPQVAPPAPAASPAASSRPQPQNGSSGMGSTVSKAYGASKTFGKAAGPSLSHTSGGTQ", "experiment": "MST inhibition of the HsDBD-F binding with ATRIP peptide", "settings": "50 nM Cy5-labeled ATRIP peptide", "text": "as §1, §2"}, "HsRPA complex": {"target": "T3, HsRPA complex (Homo sapiens, UniProt P27694)", "T3 construct": "made in house; host or cells: E. coli BL21", "experiment": "EMSA inhibition of ssDNA binding, HsRPA complex"}, "[2]": {"system": "TbRPA complex containing S105T mutation", "format": "binding, T. brucei", "settings": "dT32"}, "T. brucei cells [3]": {"system": "T. brucei cells", "experiment": "DNA synthesis assay by BrdU pulse labeling", "format": "cell-based, Trypanosoma brucei", "settings": "10 µM, after 8 h of treatment", "experimental": "The 5-Bromo-2′-deoxyuridine (BrdU) incorporation assay was performed as described previously in ref. [49]. BrdU (Sigma-Aldrich, catalog number B5002) was added to cell cultures to a final concentration of 500 μM and incubated for 40 min at 37 °C. About 20 million cells were harvested and fixed in ice-cold 70% ethanol. DNA in fixed cells was denatured in 0.1 N HCl (Fisher Scientific) with 0.5% Tween 20 (Sigma-Aldrich) and 1% BSA (Jackson Immunoresearch) for 20 min at room temperature. To stain newly incorporated DNA, fixed cells were incubated with 1 µg/ml mouse anti-BrdU antibody (BD Pharmingen, catalog number 555627, lot 6084615, dilution 1:500) at room temperature for 2.5 h and then with 4 µg/ml donkey anti-mouse Alexa 488 (Invitrogen, catalog number A-21202, lot 94C2-1, dilution 1:500) at room temperature for 1 h in the dark. Bulk DNA was stained with 5 µg/ml PI by incubating at room temperature for 30 min in the dark. Samples were analyzed by flow cytometry (FACSVia, BD Biosciences) and FlowJo."}, "T. brucei cells [4]": {"system": "T. brucei cells", "experiment": "Microscopic analysis of treated cells (DAPI)", "format": "cell-based, Trypanosoma brucei", "settings": "10 µM", "experimental": "For microscopic analysis, untreated or JC-229 treated cells were seeded, and fixed with 1% paraformaldehyde for 10 min at room temperature. Cells were then washed with 1x PBS and stained with DAPI (0.5 µg/ml) (Sigma). Images were captured using fluorescence microscopy (EVOS M5000, Thermo Fisher Scientific) at 40x magnification and edited with Adobe Photoshop."}},
  "note": "“And” between values parts separate entries of the source, which are not always exact repeats. Equal values may be shown once. “Also recorded” adds a separate entry of the source.",
  "data": [
    {"molecule": "Cc1ccc(C(=O)Nc2ccc(Cl)c(Cl)c2)cc1S(=O)(=O)Nc1ccc(Cl)c(Cl)c1", "note": "[JC-229, N-(3,4-dichlorophenyl)−3-(N-(3,4-dichlorophenyl)sulfamoyl)−4-methylbenzamide]", "values": [
      {"measurement": "IC50", "setting": "TbRPA1 DBD-AB; dT12, 30 nM protein", "result": 2800, "unit": "nM"},
      {"measurement": "IC50", "setting": "TbRPA1 DBD-AB; dT20, 30 nM protein", "result": 881, "unit": "nM"},
      {"measurement": "IC50", "setting": "TbRPA1 DBD-AB; dT32, 30 nM protein", "result": 228, "unit": "nM"},
      {"measurement": "IC50", "setting": "TbRPA complex; dT20, 25 nM complex, MST (Supplementary Fig. 11d)", "result": "33.9 nM and ~33.9 nM"},
      {"measurement": "IC50", "setting": "TbRPA complex; dT32, 25 nM complex, MST (Fig. 5d)", "result": 24.5, "unit": "nM"},
      {"measurement": "IC50", "setting": "TbRPA complex; dT32, 25 nM complex, MST (Supplementary Fig. 11d, 18g)", "result": "33.9 nM and ~33.9 nM"},
      {"measurement": "IC50", "setting": "TcRPA1 DBD-AB T105S", "result": 159000, "unit": "nM"},
      {"measurement": "IC50", "setting": "[1]", "result": "~60000 nM and 60800 nM"},
      {"measurement": "Effect on binding of HsRPA complex to ssDNA (EMSA)", "setting": "HsRPA complex", "result": "no effect"},
      {"measurement": "Effect on ssDNA binding of TbRPA S105T mutant complex (EMSA)", "setting": "[2]", "result": "not affected"},
      {"measurement": "New DNA synthesis (BrdU incorporation)", "setting": "T. brucei cells [3]", "result": "completely blocked new DNA synthesis; also recorded: completely blocking DNA synthesis"},
      {"measurement": "Microscopic analysis of treated cells", "setting": "T. brucei cells [4]", "result": "leads to cell death"}
    ]}
  ]
}
